Measured values published in US4430345A, “Prostaglandins” (National Research Development Corporation, priority 1979, dated 1984).

Key:
[1] = tested on: rabbit aorta (thromboxane receptor sites); assay: Rabbit aorta system: antagonism of contraction by 11,9-(epoxymethano) PGH2; format: cell-based; design: key to Rabbit Aorta, affinity constant not given: (2): Partial agonist; conditions: for Rabbit Aorta, affinity constant not given / Kb: against 11,9-(epoxymethano) PGH2, compound added 30 minutes previously; for Kb: Oryctolagus cuniculus, 0.5 h, Gaddum-Schild Equation, read-out: AFFINITY CONSTANTS, Rabbit Aorta (converted)
Source text: It is believed that such inhibition is the result of the compounds being thromboxane antagonists and the activity of the compounds is for convenience hereinafter discussed in these terms. […] Structural features which tend to endow a compound with a more pure antagonist form of activity are (a) the absence of a halogen substituent, particularly at the para position, in the benzene ring of a phenoxyethyl O-substituted oxime; (b) the absence of a halogen substituent at the meta position of a benzyl O-substituted oxime; and (c) the presence of two benzene rings in the oxime substituent,these rings being located, for example, on a carbon atom joined directly to the oxygen atom of the oxime group. Some activity has also been alserved in compounds according to the present invention on guinea pig tracheal muscle.
Spiral strips of thoracic aorta are suspended in Kreb's-Henseleit solution and aerated with 95% O2 /5% CO2 at 37° C. Tension changes are recorded with a Grass FTO3 force transducer. Initially, cumulative dose response curves to 11,9-(epoxymethano) PGH2 (2×10^-9, 1×10^-8, 5×10^-8 and 2.5×10^-7 M) are obtained. In a second experiment the individual compounds are added 30 minutes previously to the addition of the series of agonist doses. Affinity constants are calculated as above.
(§1) Results typical of those obtained for the various compounds (all of which are of the formula shown at the beginning of Example 4 except where otherwise indicated) are shown in Table 3.

[2] = biological target: T1, human platelets (thromboxane receptor sites) (Homo sapiens, UniProt P21731); assay: Human platelet system: antagonism of aggregation by 11,9-(epoxymethano) PGH2; format: cell-based; conditions: for Kb: against 11,9-epoxymethano analogue of PGH2, compound added 5 minutes previously, Gaddum-Schild Equation, read-out: AFFINITY CONSTANTS (KB), Human Platelets (converted)
T1 construct: Platelet-rich plasma is obtained from fresh, citrated human blood; endogenous in cells; host or cells: human platelets (platelet-rich plasma from fresh, citrated human blood)
T1 sequence (P21731 1-343): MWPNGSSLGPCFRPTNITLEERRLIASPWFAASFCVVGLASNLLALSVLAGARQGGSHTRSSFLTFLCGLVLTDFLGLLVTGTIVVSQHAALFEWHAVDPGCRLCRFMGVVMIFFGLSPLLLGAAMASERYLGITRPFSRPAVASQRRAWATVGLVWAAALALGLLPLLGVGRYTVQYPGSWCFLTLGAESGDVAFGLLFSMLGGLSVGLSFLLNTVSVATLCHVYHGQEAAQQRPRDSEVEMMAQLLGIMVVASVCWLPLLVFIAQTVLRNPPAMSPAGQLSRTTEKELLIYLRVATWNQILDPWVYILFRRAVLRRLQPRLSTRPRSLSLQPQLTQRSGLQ
Experimental: Platelet-rich plasma is obtained from fresh, citrated human blood. Addition of the 11,9-epoxymethano analogue of PGH2 (1×10^-7 M to 5×10^-7 M) causes immediate aggregation recorded as an increase in light transmission (600 nm). In a second experiment the individual compounds are added 5 minutes previously to addition of the PGH2 analogue. The dose of the PGH2 analogue added is then increased to a level which gives a similar response to that obtained in the absence of antagonist. The affinity constant, KB, for the compound is calculated according to the Gaddum-Schild Equation (based on Law of Mass Action).
[B]=molar concentration of compound
as §1

α-adrenoceptors = assay: Rabbit aorta strip: block of the contractile action of noradrenaline; format: cell-based
[3] = tested on: platelets, archidonic acid; assay: Platelets: block of the aggregatory action of arachidonic acid; format: cell-based, human; conditions: converted to TXA2 by the platelet enzyme system

Kb [2] [µM]	Compound	Kb [1] [nM]	also measured
1.69	O=C(O)CCC/C=C\C[C@H]1[C@H]2CC[C@H](C2)[C@@H]1C=NOCc1cccc(Cl)c1 (relative stereo)		Rabbit Aorta, affinity constant not given [1]: (2)
10	O=C(O)CCC/C=C\C[C@@H]1[C@@H](C=NOCCOc2ccc(Cl)cc2)[C@@H]2C=C[C@H]1C2 (relative stereo)		Rabbit Aorta, affinity constant not given [1]: (2)
5.26	O=C(O)CCC/C=C\C[C@@H]1[C@@H](C=NOCc2ccccc2)[C@@H]2C=C[C@H]1C2 (relative stereo)	667	
	O=C(O)CCC/C=C\C[C@H]1[C@H]2CC[C@H](C2)[C@@H]1C=NOCc1cccc(C(F)(F)F)c1 (relative stereo)		Rabbit Aorta, affinity constant not given [1]: (2)
5.88	CCCCCON=C[C@H]1[C@@H]2CC[C@@H](C2)[C@@H]1C/C=C\CCCC(=O)O (relative stereo) [(CH2)4 CH3]	6670	
1.72	O=C(O)CCC/C=C\C[C@H]1[C@H]2CC[C@H](C2)[C@@H]1C=NOCc1ccc(F)cc1 (relative stereo)	435	
0.0196	O=C(O)CCC/C=C\C[C@@H]1[C@@H](C=NOC(c2ccccc2)c2ccccc2)[C@@H]2C=C[C@H]1C2 (relative stereo)	1690	
12	O=C(O)CCCCCC[C@H]1[C@H]2CC[C@H](C2)[C@@H]1C=NOCc1ccc(F)cc1 (relative stereo)		
20	O=C(O)CCC/C=C\C[C@@H]1[C@@H](C=NOCCOc2ccccc2)[C@@H]2C=C[C@H]1C2 (relative stereo)	400	
2.5	O=C(O)CCC/C=C\C[C@@H]1[C@@H](C=NOCc2ccc(F)cc2)[C@@H]2C=C[C@H]1C2 (relative stereo) [drawing 29]	278	
3.57	O=C(O)CCC/C=C\C[C@H]1[C@H]2CC[C@H](C2)[C@@H]1C=NOCc1ccc(Cl)cc1Cl (relative stereo)	238	
25	O=C(O)CCC/C=C\C[C@@H]1[C@@H](C=NOCCOc2ccc(F)cc2)[C@@H]2C=C[C@H]1C2 (relative stereo)		Rabbit Aorta, affinity constant not given [1]: (2)
0.0208	O=C(O)CCC/C=C\C[C@H]1[C@H]2CC[C@H](C2)[C@@H]1C=NOC(c1ccccc1)c1ccccc1 (relative stereo)	5260	
	O=C(O)CCC/C=C\C[C@@H]1[C@@H](C=NOCc2ccc(F)cc2)[C@@H]2C=C[C@H]1C2 (relative stereo) [Example 1, 5-endo-(6'-Carboxyhex-2'-Z-enyl)-6-exo-(O-p-fluorobenzyloxyiminomethyl)-bicyclo[2,2,1]hept-2Z-ene]		activity in the rabbit aorta strip test (in words) ([1]; 11,9-(epoxymethano) PGH2, rabbit aorta strip): pure antagonists in the rabbit aorta strip test; block of contractile action of noradrenaline (in words) (α-adrenoceptors): do not block the contractile action of noradrenaline; activity in the platelet test (in words) ([2]; 11,9-(epoxymethano) PGH2, human platelets in vitro): antagonists in the platelet test; block of aggregatory action of archidonic acid (in words) [3]: block the aggregatory action of archidonic acid
4.76	O=C(O)CCC/C=C\C[C@@H]1[C@@H](C=NOCc2ccc(Cl)cc2)[C@@H]2C=C[C@H]1C2 (relative stereo)	149	
